For orientation: IC50 means the concentration needed to halve the response being measured. A higher IC50 goes with weaker potency. As a reminder, the MIC is the lowest concentration that inhibits growth of the organism. What is called Kd is the equilibrium constant for the complex coming apart.

Structures are written as SMILES. In brackets after ≈: the same amount, converted by molar mass. Activity calls are given as the source filed them. No cut-off for these calls is given here.

The subject of series [1] is Staphylococcus aureus. Briefly: In vivo antibacterial activity against Staphylococcus aureus infected in Sprague-Dawley rat skin infection model assessed in shrink of wound area measured after 3 days. It counts as functional, organism-based. The conditions noted are these: time 3.0 day.
Series [2] deals with Staphylococcus aureus. Nature of the series: In vivo antibacterial activity against Staphylococcus aureus infected in Sprague-Dawley rat skin infection model assessed in reduction of wound exudation measured after 3 days. To be noted: time 3.0 day. Type of series: functional, organism-based.
Series [3] concerns the target T1, Beta-ketoacyl-[acyl-carrier-protein] synthase III (Escherichia coli K-12, UniProt P0A6R0).
T1 sequence (P0A6R0 whole entry): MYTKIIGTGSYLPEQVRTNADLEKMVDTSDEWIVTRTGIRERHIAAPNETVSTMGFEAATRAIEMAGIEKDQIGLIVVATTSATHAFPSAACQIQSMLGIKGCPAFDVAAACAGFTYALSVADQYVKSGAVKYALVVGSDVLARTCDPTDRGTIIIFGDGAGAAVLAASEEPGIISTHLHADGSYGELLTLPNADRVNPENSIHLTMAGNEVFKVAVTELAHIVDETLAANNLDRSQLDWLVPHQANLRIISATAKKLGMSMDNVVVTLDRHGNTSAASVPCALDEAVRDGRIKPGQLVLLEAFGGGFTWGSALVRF
Briefly: Inhibition of Escherichia coli FabH.

The test system of series [4] is Staphylococcus aureus. Nature of the series: In vivo antibacterial activity against Staphylococcus aureus infected in Sprague-Dawley rat skin infection model assessed in decrease in number of inflammatory cells within wound tissue measured after 3 to 10 days by H and E staining based analysis. To be noted: time 3-10 day. Type of series: functional, organism-based.

Series [5] concerns Streptococcus pneumoniae. Nature of the series: Antibacterial activity against Streptococcus pneumoniae assessed as reduction in bacterial growth measured after 24 hrs by two-fold serial dilution method. Type of series: functional.
For series [6], the system named is Pseudomonas aeruginosa. Nature of the series: Antibacterial activity against Pseudomonas aeruginosa assessed as reduction in bacterial growth measured after 24 hrs by two-fold serial dilution method. It counts as functional.
Series [7] deals with Escherichia coli. Briefly: Antibacterial activity against Escherichia coli assessed as reduction in bacterial growth measured after 24 hrs by two-fold serial dilution method. Type of series: functional.
Series [8] deals with Staphylococcus aureus. Briefly: In vivo antibacterial activity against Staphylococcus aureus infected in Sprague-Dawley rat skin infection model assessed in reduction of wound pus measured after 3 days. To be noted: time 3.0 day. It counts as functional, organism-based.
The subject of series [9] is Erythrocyte. Briefly: Hemolytic activity in human erythrocytes assessed as hemolysis by spectrophotometric analysis. It counts as toxicity, cell-based.
The target of series [10] is T2, Beta-ketoacyl-[acyl-carrier-protein] synthase III (Escherichia coli K-12) (UniProt P0A6R0).
T2 sequence (whole entry): T1 sequence (P0A6R0 whole entry)
Briefly: Binding affinity to Escherichia coli FabH assessed as change in entropy by Isothermal titration calorimetry method. In general terms: In ITC the heat of successive injections is recorded.

The nature of series [11]: Cytotoxicity against mouse NIH3T3 cells incubated for 24 hrs by MTT analysis. It counts as toxicity, cell-based.
The test system of series [12] is Staphylococcus aureus. Nature of the series: Antibacterial activity against Staphylococcus aureus assessed as reduction in bacterial growth measured after 24 hrs by two-fold serial dilution method. It counts as functional.
Series [13] has as its system Klebsiella pneumoniae. Briefly: Antibacterial activity against Klebsiella pneumoniae assessed as reduction in bacterial growth measured after 24 hrs by two-fold serial dilution method. Type of series: functional.
The subject of series [14] is Staphylococcus aureus. Nature of the series: In vivo antibacterial activity against Staphylococcus aureus infected in Sprague-Dawley rat skin infection model assessed in wound healing measured after 10 days (reference value: 70.8%). It counts as functional. The conditions noted are these: time 10 day.
In series [15] the test system is Bacillus subtilis. Briefly: Antibacterial activity against Bacillus subtilis assessed as reduction in bacterial growth measured after 24 hrs by two-fold serial dilution method. It counts as functional.
Series [16] deals with Staphylococcus aureus. Briefly: In vivo antibacterial activity against Staphylococcus aureus infected in Sprague-Dawley rat skin infection model assessed in reduction of wound size measured after 6 days. It counts as functional, organism-based. The conditions noted are these: time 6.0 day.
Series [17] concerns the target T2, Beta-ketoacyl-[acyl-carrier-protein] synthase III (Escherichia coli K-12). Nature of the series: Binding affinity to Escherichia coli FabH assessed as change in enthalpy by Isothermal titration calorimetry method.
The target is the same in series [18]. Briefly: Binding affinity to Escherichia coli FabH assessed as change in Gibbs free energy by Isothermal titration calorimetry method.
The target in series [19] is T1, Beta-ketoacyl-[acyl-carrier-protein] synthase III. Nature of the series: Binding affinity to Escherichia coli FabH assessed as dissociation constant by Isothermal titration calorimetry method.

For `COC(=O)c1c[nH]c2cc(NC(=O)c3ccc4c(c3)OCCCO4)ccc12`, the result in [1], in series [2], in [4], in [8] and in [16] was Active. Besides, in series [3], the IC50 stood at 2 µM. Further, the MIC came to 6.25 µg/mL (≈ 17.1 µM) in [5]; 1.56 µg/mL (≈ 4.26 µM) in series [6]; 1.56 µg/mL (≈ 4.26 µM) in series [7]; 3.13 µg/mL (≈ 8.54 µM) in series [12]; 1.56 µg/mL (≈ 4.26 µM) in [13]; 3.13 µg/mL (≈ 8.54 µM) in series [15]. For the same compound, in series [9], the HC30 was above 10 µg/mL. Besides, the TdeltaS in series [10] was -73.6 kcal/mol. Also, in series [11], the IC50 at 24 h came out at 142 µM. This compound also displayed an Activity in [14] of 94%. Also, the deltaH in [17] is -80 kcal/mol. In addition, the deltaG in series [18] is -6.4 kcal/mol. The Kd in series [19] was 21.5 µM.

Take `CC(=O)c1cccnc1NC(=O)c1ccc2c(c1)OCCCO2`: in series [3], the IC50 was 46.4 µM. The MIC is above 100 µg/mL in series [5]; above 100 µg/mL in [6]; 6.25 µg/mL (≈ 20 µM) in series [7]; 50 µg/mL (≈ 160 µM) in series [12]; 25 µg/mL (≈ 80 µM) in series [13]; 50 µg/mL (≈ 160 µM) in series [15]. In addition, the HC30 in series [9] was above 10 µg/mL. In addition, in [11], half-maximal inhibition (IC50 at 24 h) required 128 µM.

Turning to `CCOC(=O)c1cccnc1NC(=O)c1ccc2c(c1)OCCCO2`, it took 26.8 µM to reach half-maximal inhibition in series [3] (IC50). Besides, the MIC turned out to be 25 µg/mL (≈ 73 µM) in series [5]; 12.5 µg/mL (≈ 36.5 µM) in series [6]; 6.25 µg/mL (≈ 18.3 µM) in series [7]; 25 µg/mL (≈ 73 µM) in series [12]; 25 µg/mL (≈ 73 µM) in series [13]; 25 µg/mL (≈ 73 µM) in series [15]. The HC30 in series [9] is above 10 µg/mL. This compound also had an IC50 at 24 h in series [11] of 147 µM.

Regarding `CC(=O)N1CCC(NC(=O)c2ccc3c(c2)OCCCO3)CC1`, the IC50 in series [3] is 17.5 µM. In addition, the MIC in [5] was found to be 25 µg/mL (≈ 78.5 µM); in series [6], 3.13 µg/mL (≈ 9.83 µM); in series [7], 12.5 µg/mL (≈ 39.3 µM); in [12], 3.13 µg/mL (≈ 9.83 µM); in [13], 3.13 µg/mL (≈ 9.83 µM); in [15], 25 µg/mL (≈ 78.5 µM). The HC30 in series [9] was above 10 µg/mL. The compound further yielded an IC50 at 24 h in series [11] of 132 µM.

For `COC(=O)c1cccc(-c2ccc(NC(=O)c3ccc4c(c3)OCCCO4)cc2)c1`, the IC50 in series [3] came to 19.6 µM. In addition, the MIC in [5] is above 100 µg/mL; in series [6] it was 50 µg/mL (≈ 124 µM); in series [7], 12.5 µg/mL (≈ 31 µM); in series [12], 50 µg/mL (≈ 124 µM); in series [13] it was 50 µg/mL (≈ 124 µM); in [15], 50 µg/mL (≈ 124 µM). For the same compound, the HC30 in [9] is above 10 µg/mL. This compound also displayed an IC50 at 24 h in [11] of 161 µM.
